Data on 20 compounds can be found in patent publication US8569292B2, “Cyclic inhibitors of 11β-hydroxysteroid dehydrogenase 1” (Vitae Pharmaceuticals, Inc., priority 2008, dated 2013).

For assay [1], the target named is T1, 11β-HSD1 (Homo sapiens, UniProt P28845). Description: Biological Test Example 4: microsomal 11β-HSD1 in the presence of 50% human plasma. Conditions: for Shift: IC50 in Test Example 4 divided by IC50 in Test Example 1.
The target in assay [2] is T1, 11β-HSD1. Description: biochemical. Conditions: for inhibition at 0.1 µM: read-out: Average % inhibition at 100 nM.
The mark [3] stands for this setting: Biological Test Example 1 IC50 (nM).
Setting [4] is: IC50 Range, Biological Test Example 1.

T1 sequence (P28845 whole entry): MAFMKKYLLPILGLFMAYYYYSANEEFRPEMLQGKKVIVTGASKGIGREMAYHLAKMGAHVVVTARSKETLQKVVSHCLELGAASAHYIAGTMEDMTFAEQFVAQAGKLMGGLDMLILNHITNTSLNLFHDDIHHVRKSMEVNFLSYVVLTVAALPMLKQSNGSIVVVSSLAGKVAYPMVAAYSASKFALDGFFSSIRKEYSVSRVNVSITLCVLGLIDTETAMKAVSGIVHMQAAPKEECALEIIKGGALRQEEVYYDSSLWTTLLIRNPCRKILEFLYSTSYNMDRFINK

A word on the IC50: it is the midpoint of a concentration-inhibition curve. Broadly, the inhibition is the percentage by which the read-out fell short of the control. Consider `C[C@@H](c1ccc(-c2ccc(C(C)(C)C)nn2)cc1)N1CC[C@](CC(C)(C)O)(c2ccccc2)OC1=O` [EXAMPLE 6, (S)-3-((S)-1-(4-(6-tert-butylpyridazin-3-yl)phenyl)ethyl)-6-(2-hydroxy-2-methylpropyl)-6-phenyl-1,3-oxazinan-2-one], for which the IC50 is 8.6 nM in assay [1], 1 nM in assay [2] (setting [3]) and less than 100 nM in assay [2] (setting [4]). For the same compound, the Shift in assay [1] stood at 8.4. In assay [2], the inhibition at 0.1 µM stood at 96.3%.
For the compound `C[C@@H](c1ccc(-c2ccc(C#N)cn2)cc1)N1CC[C@](CCCO)(c2ccccc2)OC1=O` [EXAMPLE 110, 6-(4-((S)-1-((R)-6-(3-hydroxypropyl)-2-oxo-6-phenyl-1,3-oxazinan-3-yl)ethyl)phenyl)nicotinonitrile], the half-inhibitory concentration (IC50) in assay [1] was 3.7 nM; in assay [2] (setting [3]), 0.5 nM; in assay [2] (setting [4]), less than 100 nM. In addition, the Shift in assay [1] came to 7.7. Also, the inhibition at 0.1 µM in assay [2] was determined as 93.9%.
For `COc1ccc(-c2ccc([C@H](C)N3CC[C@](CCO)(c4ccccc4)OC3=O)cc2)cn1` [EXAMPLE 92, (S)-6-(2-hydroxyethyl)-3-((S)-1-(4-(6-methoxypyridin-3-yl)phenyl)ethyl)-6-phenyl-1,3-oxazinan-2-one], in that order: 12.7 nM, 0.5 nM, less than 100 nM, 23.7 and 97.3%.
Consider `Cc1nccc(-c2ccc([C@H](C)N3CC[C@](CC(C)(C)C#N)(c4ccc(F)cc4)OC3=O)cc2)n1` [EXAMPLE 142, 3-((R)-6-(4-fluorophenyl)-3-((S)-1-(4-(2-methylpyrimidin-4-yl)phenyl)ethyl)-2-oxo-1,3-oxazinan-6-yl)-2,2-dimethylpropanenitrile], for which the IC50 in assay [1] is 8.1 nM; in assay [2] (setting [3]) it was 2.6 nM; in assay [2] (setting [4]) it was less than 100 nM. Further, the Shift in assay [1] worked out at 3.1. In addition, the inhibition at 0.1 µM in assay [2] came out at 96.4%.
As to `C[C@@H](c1ccc(-c2ncc(C(=O)NC3CC3)s2)cc1)N1CC[C@](CC(C)(C)C#N)(c2ccccc2)OC1=O` [EXAMPLE 21, 2-(4-((S)-1-((R)-6-(2-cyano-2-methylpropyl)-2-oxo-6-phenyl-1,3-oxazinan-3-yl)ethyl)phenyl)-N-cyclopropylthiazole-5-carboxamide], the values for the IC50 in assay [1], in assay [2] (setting [3]) and in assay [2] (setting [4]) were 3.4 nM, 0.4 nM and less than 100 nM, respectively. For the same compound, the Shift in assay [1] worked out at 7.8. In addition, the inhibition at 0.1 µM in assay [2] was 99.2%.
With `Cc1cccc(-c2ccc([C@H](C)N3CC[C@](CCCO)(c4ccccc4)OC3=O)cc2)n1` [EXAMPLE 90, (R)-6-(3-hydroxypropyl)-3-((S)-1-(4-(6-methylpyridin-2-yl)phenyl)ethyl)-6-phenyl-1,3-oxazinan-2-one], the results for the IC50 in assay [1], in assay [2] (setting [3]) and in assay [2] (setting [4]) were 13.5 nM, 0.5 nM and less than 100 nM, respectively. Besides, the Shift in assay [1] worked out at 25.5. Also, the inhibition at 0.1 µM in assay [2] stood at 96.7%.
For `C[C@@H](c1ccc(-c2ncccc2C#N)cc1)N1CC[C@](CC(C)(C)O)(c2ccccc2)OC1=O` [EXAMPLE 165, 2-(4-((S)-1-((S)-6-(2-hydroxy-2-methylpropyl)-2-oxo-6-phenyl-1,3-oxazinan-3-yl)ethyl)phenyl)nicotinonitrile], the IC50 in assay [1] is 42.5 nM; in assay [2] (setting [3]), 2.4 nM; in assay [2] (setting [4]), less than 100 nM. Moreover, the inhibition at 0.1 µM in assay [2] was found to be 94.5%.
Turning to `Cc1nc(C)c(-c2ccc([C@H](C)N3CC[C@](CCC(N)=O)(c4ccc(F)cc4)OC3=O)cc2)s1` [EXAMPLE 84, 3-((R)-3-((S)-1-(4-(2,4-dimethylthiazol-5-yl)phenyl)ethyl)-6-(4-fluorophenyl)-2-oxo-1,3-oxazinan-6-yl)propanamide], the IC50 in assay [1] was 12.4 nM; in assay [2] (setting [3]), 3.5 nM; in assay [2] (setting [4]), less than 100 nM. For the same compound, in assay [1], the Shift was 3.5. The inhibition at 0.1 µM in assay [2] is 93.3%.
Turning to `C[C@@H](c1ccc(-c2ccc(C(F)(F)F)cn2)cc1)N1CC[C@](CCCO)(c2ccc(F)cc2)OC1=O` [EXAMPLE 109, (R)-6-(4-fluorophenyl)-6-(3-hydroxypropyl)-3-((S)-1-(4-(5-(trifluoromethyl)pyridin-2-yl)phenyl)ethyl)-1,3-oxazinan-2-one], the IC50 is 31.9 nM in assay [1], 2.9 nM in assay [2] (setting [3]) and less than 100 nM in assay [2] (setting [4]). Besides, the Shift in assay [1] came out at 11.0. Besides, in assay [2], the inhibition at 0.1 µM amounted to 91.5%.
The corresponding values for `C[C@@H](c1ccc(-c2ccc(C(=O)NC3CC3)cn2)cc1)N1CC[C@](CC(C)(C)C#N)(c2ccccc2)OC1=O` [EXAMPLE 2, 6-(4-((S)-1-((R)-6-(2-cyano-2-methylpropyl)-2-oxo-6-phenyl-1,3-oxazinan-3-yl)ethyl)phenyl)-N-cyclopropylnicotinamide] are 2.9 nM, 0.8 nM, less than 100 nM, 3.8 and 99%.
`C=CC[C@]1(c2ccc(F)cc2)CCN([C@@H](C)c2ccc(-c3sc(C)nc3C)cc2)C(=O)O1` [EXAMPLE 42, (R)-6-allyl-3-((S)-1-(4-(2,4-dimethylthiazol-5-yl)phenyl)ethyl)-6-(4-fluorophenyl)-1,3-oxazinan-2-one]: the 50% inhibitory concentration (IC50) was 34.3 nM in assay [1], 1 nM in assay [2] (setting [3]) and less than 100 nM in assay [2] (setting [4]). Moreover, the Shift in assay [1] is 33.4. Besides, in assay [2], the inhibition at 0.1 µM came to 90.9%.
Take `Cc1cc(-c2ccc([C@H](C)N3CC[C@](CCN(C)S(C)(=O)=O)(c4ccccc4)OC3=O)cc2)ccn1` [EXAMPLE 117, N-methyl-N-(2-((S)-3-((S)-1-(4-(2-methylpyridin-4-yl)phenyl)ethyl)-2-oxo-6-phenyl-1,3-oxazinan-6-yl)ethyl)methanesulfonamide]: the figures for the IC50 in assay [1], in assay [2] (setting [3]) and in assay [2] (setting [4]) were 12.1 nM, 1.7 nM and less than 100 nM, respectively. In assay [1], the Shift is given as 7.3. Also, in assay [2], the inhibition at 0.1 µM stood at 93.9%.
On to `C[C@@H](c1ccc(-c2ccc(OCCF)nc2)cc1)N1CC[C@](CC(C)(C)O)(c2ccccc2)OC1=O` [EXAMPLE 200, (S)-3-((S)-1-(4-(6-(2-fluoroethoxy)pyridin-3-yl)phenyl)ethyl)-6-(2-hydroxy-2-methylpropyl)-6-phenyl-1,3-oxazinan-2-one], for which the figures for the IC50 in assay [1], in assay [2] (setting [3]) and in assay [2] (setting [4]) were 18.3 nM, 0.96 nM and less than 100 nM, respectively. In addition, in assay [1], the Shift turned out to be 19.1. In assay [2], the inhibition at 0.1 µM is 98.3%.
For `Cc1cn(-c2ncc(-c3ccc([C@H](C)N4CC[C@](CC(C)(C)O)(c5ccccc5)OC4=O)cc3)cn2)c(C)n1` [EXAMPLE 26, (S)-3-((S)-1-(4-(2-(2,4-dimethyl-1H-imidazol-1-yl)pyrimidin-5-yl)phenyl)ethyl)-6-(2-hydroxy-2-methylpropyl)-6-phenyl-1,3-oxazinan-2-one], in that order: 6.8 nM, 1.7 nM, less than 100 nM, 4.1 and 95.2%.
Turning to `C[C@@H](c1ccc(-c2nccs2)cc1)N1CC[C@](CCCO)(c2ccc(F)cc2)OC1=O` [EXAMPLE 82, (R)-6-(4-fluorophenyl)-6-(3-hydroxypropyl)-3-((S)-1-(4-(thiazol-2-yl)phenyl)ethyl)-1,3-oxazinan-2-one], the figures for the IC50 in assay [1], in assay [2] (setting [3]) and in assay [2] (setting [4]) were 25.2 nM, 1.8 nM and less than 100 nM, respectively. The inhibition at 0.1 µM in assay [2] stood at 98.1%.
On to `CC[C@@H](c1ccc(-c2cc(C)[n+]([O-])c(C)c2)cc1)N1CC[C@](CC(C)(C)O)(c2ccccc2)OC1=O` [EXAMPLE 154, 4-(4-((S)-1-((S)-6-(2-hydroxy-2-methylpropyl)-2-oxo-6-phenyl-1,3-oxazinan-3-yl)propyl)phenyl)-2,6-dimethylpyridine 1-oxide], for which the IC50 in assay [1] is 13.2 nM; in assay [2] (setting [3]), 3.5 nM; in assay [2] (setting [4]), less than 100 nM. The Shift in assay [1] is 3.8. Further, in assay [2], the inhibition at 0.1 µM is 90.7%.
`C[C@@H](c1ccc(-c2ccncc2)cc1)N1CC[C@](CCC(N)=O)(c2ccccc2)OC1=O` [EXAMPLE 48, 3-((R)-2-oxo-6-phenyl-3-((S)-1-(4-(pyridin-4-yl)phenyl)ethyl)-1,3-oxazinan-6-yl)propanamide]: the figures for the IC50 in assay [1], in assay [2] (setting [3]) and in assay [2] (setting [4]) were 3.9 nM, 1 nM and less than 100 nM, respectively. Also, the inhibition at 0.1 µM in assay [2] is 94.3%.
Turning to `Cc1nccc(-c2ccc([C@H](C)N3CC[C@](CCCO)(c4ccc(F)cc4)OC3=O)cc2)n1` [EXAMPLE 126, (R)-6-(4-fluorophenyl)-6-(3-hydroxypropyl)-3-((S)-1-(4-(2-methylpyrimidin-4-yl)phenyl)ethyl)-1,3-oxazinan-2-one], the IC50 in assay [1] is 13.3 nM; in assay [2] (setting [3]) it was 1.5 nM; in assay [2] (setting [4]), less than 100 nM. In addition, the Shift in assay [1] is given as 8.7. Also, the inhibition at 0.1 µM in assay [2] amounted to 96.7%.
For `C[C@@H](c1ccc(-c2cnc(C(C)(C)O)nc2)cc1)N1CC[C@](CC(C)(C)O)(c2ccccc2)OC1=O` [EXAMPLE 31, (S)-6-(2-hydroxy-2-methylpropyl)-3-((S)-1-(4-(2-(2-hydroxypropan-2-yl)pyrimidin-5-yl)phenyl)ethyl)-6-phenyl-1,3-oxazinan-2-one], the IC50 in assay [1] is 9.3 nM; in assay [2] (setting [3]), 4.8 nM; in assay [2] (setting [4]) it was less than 100 nM. Further, in assay [1], the Shift is 1.9. Also, the inhibition at 0.1 µM in assay [2] amounted to 90.7%.
`Cc1cc(-c2ccc([C@H](C)N3CC[C@](CCNS(C)(=O)=O)(c4ccccc4)OC3=O)cc2)ccn1` [EXAMPLE 103, N-(2-((S)-3-((S)-1-(4-(2-methylpyridin-4-yl)phenyl)ethyl)-2-oxo-6-phenyl-1,3-oxazinan-6-yl)ethyl)methanesulfonamide]: the IC50 was 8.2 nM in assay [1], 1.9 nM in assay [2] (setting [3]) and less than 100 nM in assay [2] (setting [4]). Besides, the Shift in assay [1] worked out at 4.3. For the same compound, the inhibition at 0.1 µM in assay [2] amounted to 98.5%.
